# Earlier results as cited in patent US20150065545A1, “Transdermal Delivery of Anastrozole for Systemic Effect” (Professional Compounding Centers of America, priority 2013, published 2015).
# Legend:
# [1] = men with hormone disorders (elevated estradiol) prescribed anastrozole
# [2] = after the use of anastrozole for about 7 days
structure (smiles),measurement,setting,value
"CC(C)(C#N)c1cc(Cn2cncn2)cc(C(C)(C)C#N)c1 [anastrozole, 1,3-benzenediacetonitrile, a, a, a′, a′-tetramethyl-5-(1H-1,2,4-triazol-1-ylmethyl)]",estradiol levels,[1],significant decrease
same,increase of natural testosterone levels,[2],≤ 60%
